Test results: ChEMBL document CHEMBL1629608, “Variations in amino acid composition of antisense peptide-phosphorodiamidate morpholino oligomer affect potency against Escherichia coli in vitro and in vivo” (Antimicrob Agents Chemother, 2009)
In brackets after ≈: the same amount, converted by molar mass.

Test system: Escherichia coli
Assay: Antibacterial activity against Escherichia coli K-12 W3110 by microdilution method
Type: functional
Conditions: K-12 substr. W3110

SMILES	MIC [µM]
Cc1cn([C@H]2CN(P(=O)(OC[C@@H]3CN(P(=O)(OC[C@@H]4CN(P(=O)(OC[C@@H]5CN(P(=O)(OC[C@@H]6CN(P(=O)(OC[C@@H]7CN(P(=O)(OC[C@@H]8CN(P(=O)(OC[C@@H]9CN(P(=O)(OC[C@@H]%10CNC[C@H](n%11cnc%12c(=O)[nH]c(N)nc%12%11)O%10)N(C)C)C[C@H](n%10cc(C)c(=O)[nH]c%10=O)O9)N(C)C)C[C@H](n9cnc%10c(=O)[nH]c(N)nc%109)O8)N(C)C)C[C@H](n8cnc9c(N)ncnc98)O7)N(C)C)C[C@H](n7cc(C)c(=O)[nH]c7=O)O6)N(C)C)C[C@H](n6cnc7c(N)ncnc76)O5)N(C)C)C[C@H](n5cnc6c(=O)[nH]c(N)nc65)O4)N(C)C)C[C@H](n4ccc(N)nc4=O)O3)N(C)C)C[C@@H](COP(=O)(N(C)C)N3C[C@@H](COP(=O)(N(C)C)N4C[C@@H](COP(=O)(N(C)C)N5CCN(C(=O)CCNC(=O)CCCCCNC(=O)[C@@H](N)CCCNC(=O)[C@H](Cc6ccccc6)NC(=O)[C@H](Cc6ccccc6)NC(=O)[C@@H](N)CCCNC(=O)[C@H](Cc6ccccc6)NC(=O)[C@H](Cc6ccccc6)NC(=O)[C@@H](N)CCCNC(=O)[C@H](Cc6ccccc6)NC(=O)[C@H](Cc6ccccc6)NC(=O)[C@@H](N)CCCN)CC5)O[C@@H](n5ccc(N)nc5=O)C4)O[C@@H](n4cc(C)c(=O)[nH]c4=O)C3)O2)c(=O)[nH]c1=O (stereo partly drawn)	> 80
Cc1cn([C@H]2CN(P(=O)(OC[C@@H]3CN(P(=O)(OC[C@@H]4CN(P(=O)(OC[C@@H]5CN(P(=O)(OC[C@@H]6CN(P(=O)(OC[C@@H]7CN(P(=O)(OC[C@@H]8CN(P(=O)(OC[C@@H]9CN(P(=O)(OC[C@@H]%10CNC[C@H](n%11cnc%12c(=O)[nH]c(N)nc%12%11)O%10)N(C)C)C[C@H](n%10cc(C)c(=O)[nH]c%10=O)O9)N(C)C)C[C@H](n9cnc%10c(=O)[nH]c(N)nc%109)O8)N(C)C)C[C@H](n8cnc9c(N)ncnc98)O7)N(C)C)C[C@H](n7cc(C)c(=O)[nH]c7=O)O6)N(C)C)C[C@H](n6cnc7c(N)ncnc76)O5)N(C)C)C[C@H](n5cnc6c(=O)[nH]c(N)nc65)O4)N(C)C)C[C@H](n4ccc(N)nc4=O)O3)N(C)C)C[C@@H](COP(=O)(N(C)C)N3C[C@@H](COP(=O)(N(C)C)N4C[C@@H](COP(=O)(N(C)C)N5CCN(C(=O)CCNC(=O)CCCCCNC(=O)[C@H](CCCNC(=N)N)NC(=O)CCCCCNC(=O)[C@@H](N)CCCNC(=N)N)CC5)O[C@@H](n5ccc(N)nc5=O)C4)O[C@@H](n4cc(C)c(=O)[nH]c4=O)C3)O2)c(=O)[nH]c1=O (stereo partly drawn)	> 80
Cc1cn([C@H]2CN(P(=O)(OC[C@@H]3CN(P(=O)(OC[C@@H]4CN(P(=O)(OC[C@@H]5CN(P(=O)(OC[C@@H]6CN(P(=O)(OC[C@@H]7CN(P(=O)(OC[C@@H]8CN(P(=O)(OC[C@@H]9CN(P(=O)(OC[C@@H]%10CNC[C@H](n%11cnc%12c(=O)[nH]c(N)nc%12%11)O%10)N(C)C)C[C@H](n%10cc(C)c(=O)[nH]c%10=O)O9)N(C)C)C[C@H](n9cnc%10c(=O)[nH]c(N)nc%109)O8)N(C)C)C[C@H](n8cnc9c(N)ncnc98)O7)N(C)C)C[C@H](n7cc(C)c(=O)[nH]c7=O)O6)N(C)C)C[C@H](n6cnc7c(N)ncnc76)O5)N(C)C)C[C@H](n5cnc6c(=O)[nH]c(N)nc65)O4)N(C)C)C[C@H](n4ccc(N)nc4=O)O3)N(C)C)C[C@@H](COP(=O)(N(C)C)N3C[C@@H](COP(=O)(N(C)C)N4C[C@@H](COP(=O)(N(C)C)N5CCN(C(=O)CCNC(=O)CCCCCNC(=O)[C@H](Cc6ccccc6)NC(=O)[C@H](Cc6ccccc6)NC(=O)[C@@H](N)CCCNC(=N)N)CC5)O[C@@H](n5ccc(N)nc5=O)C4)O[C@@H](n4cc(C)c(=O)[nH]c4=O)C3)O2)c(=O)[nH]c1=O (stereo partly drawn)	> 80
Cc1cn([C@H]2CN(P(=O)(OC[C@@H]3CN(P(=O)(OC[C@@H]4CN(P(=O)(OC[C@@H]5CN(P(=O)(OC[C@@H]6CN(P(=O)(OC[C@@H]7CN(P(=O)(OC[C@@H]8CN(P(=O)(OC[C@@H]9CN(P(=O)(OC[C@@H]%10CNC[C@H](n%11cnc%12c(=O)[nH]c(N)nc%12%11)O%10)N(C)C)C[C@H](n%10cc(C)c(=O)[nH]c%10=O)O9)N(C)C)C[C@H](n9cnc%10c(=O)[nH]c(N)nc%109)O8)N(C)C)C[C@H](n8cnc9c(N)ncnc98)O7)N(C)C)C[C@H](n7cc(C)c(=O)[nH]c7=O)O6)N(C)C)C[C@H](n6cnc7c(N)ncnc76)O5)N(C)C)C[C@H](n5cnc6c(=O)[nH]c(N)nc65)O4)N(C)C)C[C@H](n4ccc(N)nc4=O)O3)N(C)C)C[C@@H](COP(=O)(N(C)C)N3C[C@@H](COP(=O)(N(C)C)N4C[C@@H](COP(=O)(N(C)C)N5CCN(C(=O)CCNC(=O)CCCCCNC(=O)[C@H](CCCCN)NC(=O)CCCCCNC(=O)[C@H](CCCCN)NC(=O)CCCCCNC(=O)[C@H](CCCCN)NC(=O)CCCCCNC(=O)[C@H](CCCCN)NC(=O)CCCCCNC(=O)[C@H](CCCCN)NC(=O)CCCCCNC(=O)[C@@H](N)CCCCN)CC5)O[C@@H](n5ccc(N)nc5=O)C4)O[C@@H](n4cc(C)c(=O)[nH]c4=O)C3)O2)c(=O)[nH]c1=O (stereo partly drawn)	> 80
Cc1cn([C@H]2CN(P(=O)(OC[C@@H]3CN(P(=O)(OC[C@@H]4CN(P(=O)(OC[C@@H]5CN(P(=O)(OC[C@@H]6CN(P(=O)(OC[C@@H]7CN(P(=O)(OC[C@@H]8CN(P(=O)(OC[C@@H]9CN(P(=O)(OC[C@@H]%10CNC[C@H](n%11cnc%12c(=O)[nH]c(N)nc%12%11)O%10)N(C)C)C[C@H](n%10cc(C)c(=O)[nH]c%10=O)O9)N(C)C)C[C@H](n9cnc%10c(=O)[nH]c(N)nc%109)O8)N(C)C)C[C@H](n8cnc9c(N)ncnc98)O7)N(C)C)C[C@H](n7cc(C)c(=O)[nH]c7=O)O6)N(C)C)C[C@H](n6cnc7c(N)ncnc76)O5)N(C)C)C[C@H](n5cnc6c(=O)[nH]c(N)nc65)O4)N(C)C)C[C@H](n4ccc(N)nc4=O)O3)N(C)C)C[C@@H](COP(=O)(N(C)C)N3C[C@@H](COP(=O)(N(C)C)N4C[C@@H](COP(=O)(N(C)C)N5CCN(C(=O)CCNC(=O)CCCCCNC(=O)[C@H](CCCNC(=N)N)NC(=O)[C@@H](NC(=O)[C@@H](NC(=O)[C@H](CCCNC(=N)N)NC(=O)[C@@H](NC(=O)[C@@H](NC(=O)[C@H](CCCNC(=N)N)NC(=O)[C@@H](NC(=O)[C@@H](NC(=O)[C@@H](N)CCCNC(=N)N)C(C)C)C(C)C)C(C)C)C(C)C)C(C)C)C(C)C)CC5)O[C@@H](n5ccc(N)nc5=O)C4)O[C@@H](n4cc(C)c(=O)[nH]c4=O)C3)O2)c(=O)[nH]c1=O (stereo partly drawn)	> 80

Compounds with a lower MIC, results first:

MIC [µM]	SMILES
20 (≈ 100 µg/mL)	Cc1cn([C@H]2CN(P(=O)(OC[C@@H]3CN(P(=O)(OC[C@@H]4CN(P(=O)(OC[C@@H]5CN(P(=O)(OC[C@@H]6CN(P(=O)(OC[C@@H]7CN(P(=O)(OC[C@@H]8CN(P(=O)(OC[C@@H]9CN(P(=O)(OC[C@@H]%10CNC[C@H](n%11cnc%12c(=O)[nH]c(N)nc%12%11)O%10)N(C)C)C[C@H](n%10cc(C)c(=O)[nH]c%10=O)O9)N(C)C)C[C@H](n9cnc%10c(=O)[nH]c(N)nc%109)O8)N(C)C)C[C@H](n8cnc9c(N)ncnc98)O7)N(C)C)C[C@H](n7cc(C)c(=O)[nH]c7=O)O6)N(C)C)C[C@H](n6cnc7c(N)ncnc76)O5)N(C)C)C[C@H](n5cnc6c(=O)[nH]c(N)nc65)O4)N(C)C)C[C@H](n4ccc(N)nc4=O)O3)N(C)C)C[C@@H](COP(=O)(N(C)C)N3C[C@@H](COP(=O)(N(C)C)N4C[C@@H](COP(=O)(N(C)C)N5CCN(C(=O)CCNC(=O)CCCCCNC(=O)CCCCCNC(=O)[C@H](CCCNC(=N)N)NC(=O)CCCCCNC(=O)CCCCCNC(=O)[C@H](CCCNC(=N)N)NC(=O)CCCCCNC(=O)CCCCCNC(=O)[C@@H](N)CCCNC(=N)N)CC5)O[C@@H](n5ccc(N)nc5=O)C4)O[C@@H](n4cc(C)c(=O)[nH]c4=O)C3)O2)c(=O)[nH]c1=O (stereo partly drawn)
2.5 (≈ 14.1 µg/mL)	Cc1cn([C@H]2CN(P(=O)(OC[C@@H]3CN(P(=O)(OC[C@@H]4CN(P(=O)(OC[C@@H]5CN(P(=O)(OC[C@@H]6CN(P(=O)(OC[C@@H]7CN(P(=O)(OC[C@@H]8CN(P(=O)(OC[C@@H]9CN(P(=O)(OC[C@@H]%10CNC[C@H](n%11cnc%12c(=O)[nH]c(N)nc%12%11)O%10)N(C)C)C[C@H](n%10cc(C)c(=O)[nH]c%10=O)O9)N(C)C)C[C@H](n9cnc%10c(=O)[nH]c(N)nc%109)O8)N(C)C)C[C@H](n8cnc9c(N)ncnc98)O7)N(C)C)C[C@H](n7cc(C)c(=O)[nH]c7=O)O6)N(C)C)C[C@H](n6cnc7c(N)ncnc76)O5)N(C)C)C[C@H](n5cnc6c(=O)[nH]c(N)nc65)O4)N(C)C)C[C@H](n4ccc(N)nc4=O)O3)N(C)C)C[C@@H](COP(=O)(N(C)C)N3C[C@@H](COP(=O)(N(C)C)N4C[C@@H](COP(=O)(N(C)C)N5CCN(C(=O)CCNC(=O)CCCCCNC(=O)[C@H](CCCNC(=N)N)NC(=O)CCNC(=O)[C@H](CCCNC(=N)N)NC(=O)[C@H](CCCNC(=N)N)NC(=O)CCCCCNC(=O)[C@H](CCCNC(=N)N)NC(=O)NC(=O)[C@H](CCCNC(=N)N)NC(=O)CCNC(=O)[C@H](CCCNC(=N)N)NC(=O)[C@H](CCCNC(=N)N)NC(=O)CCCCCNC(=O)[C@@H](N)CCCNC(=N)N)CC5)O[C@@H](n5ccc(N)nc5=O)C4)O[C@@H](n4cc(C)c(=O)[nH]c4=O)C3)O2)c(=O)[nH]c1=O (stereo partly drawn)
20 (≈ 97.4 µg/mL)	Cc1cn([C@H]2CN(P(=O)(OC[C@@H]3CN(P(=O)(OC[C@@H]4CN(P(=O)(OC[C@@H]5CN(P(=O)(OC[C@@H]6CN(P(=O)(OC[C@@H]7CN(P(=O)(OC[C@@H]8CN(P(=O)(OC[C@@H]9CN(P(=O)(OC[C@@H]%10CNC[C@H](n%11cnc%12c(=O)[nH]c(N)nc%12%11)O%10)N(C)C)C[C@H](n%10cc(C)c(=O)[nH]c%10=O)O9)N(C)C)C[C@H](n9cnc%10c(=O)[nH]c(N)nc%109)O8)N(C)C)C[C@H](n8cnc9c(N)ncnc98)O7)N(C)C)C[C@H](n7cc(C)c(=O)[nH]c7=O)O6)N(C)C)C[C@H](n6cnc7c(N)ncnc76)O5)N(C)C)C[C@H](n5cnc6c(=O)[nH]c(N)nc65)O4)N(C)C)C[C@H](n4ccc(N)nc4=O)O3)N(C)C)C[C@@H](COP(=O)(N(C)C)N3C[C@@H](COP(=O)(N(C)C)N4C[C@@H](COP(=O)(N(C)C)N5CCN(C(=O)CCNC(=O)CCCCCNC(=O)[C@H](Cc6ccccc6)NC(=O)[C@H](Cc6ccccc6)NC(=O)[C@H](CCCNC(=N)N)NC(=O)[C@H](Cc6ccccc6)NC(=O)[C@H](Cc6ccccc6)NC(=O)[C@@H](N)CCCNC(=N)N)CC5)O[C@@H](n5ccc(N)nc5=O)C4)O[C@@H](n4cc(C)c(=O)[nH]c4=O)C3)O2)c(=O)[nH]c1=O (stereo partly drawn)
